From the supplement of paper PMC10307832

How the values were obtained:
Assay in all cases: relative viability (nuclei count vs DMSO), 5 days (fraction); higher = more cells survive
[1] = compound: CC[C@@H]1C(=O)N(C)c2cnc(Nc3ccc(C(=O)NC4CCN(C)CC4)cc3OC)nc2N1C1CCCC1 [BI-2536] + CC(C)C[C@H](NC(=O)[C@H](Cc1ccccc1)NC(=O)c1cnccn1)B(O)O [Bortezomib] (partner 0.002 µM)
Summary of the method: (§1)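 Five library-drug doses in √10 steps were combined with a fixed anchor-drug dose, or a single drug was given alone, by pin tool to lung cancer cell lines in 1536-well plates the day after seeding. Nuclei were stained and counted after 5 days. Relative viability is the nuclei count in treated wells over that in vehicle wells, taken as the median of duplicate plates.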

[2] = compound: CC1CC(=O)N(C2=CN=C(N=C2N1C3CCCC3)NC4=C(C=C(C=C4)C(=O)NC5CCN(CC5)C)OC)C [NPK76-II-72-1] + O=C(c1cc(Cc2n[nH]c(=O)c3ccccc23)ccc1F)N1CCN(C(=O)C2CC2)CC1 [Olaparib] (partner 8 µM)
Summary of the method: as §1

[3] = compound: CC[C@@H]1C(=O)N(C)c2cnc(Nc3ccc(C(=O)NC4CCN(C)CC4)cc3OC)nc2N1C1CCCC1 [BI-2536] + C[C@]1(O)C[C@@H](c2nc(-c3ccc4ccc(-c5ccccc5)nc4c3)c3c(N)nccn32)C1 [Linsitinib] (partner 1 µM)
Summary of the method: as §1

[4] = compound: CC1CC(=O)N(C2=CN=C(N=C2N1C3CCCC3)NC4=C(C=C(C=C4)C(=O)NC5CCN(CC5)C)OC)C [NPK76-II-72-1] + Cc1nc(NC(=O)N2CCC[C@H]2C(N)=O)sc1-c1ccnc(C(C)(C)C(F)(F)F)c1 [Alpelisib] (partner 2 µM)
Summary of the method: as §1

Cell Line	relative viability ([1]; first compound 0.01 µM)	relative viability ([1]; first compound 0.03162 µM)	relative viability ([1]; first compound 0.1 µM)	relative viability ([1]; first compound 0.3162 µM)	relative viability ([1]; first compound 1 µM)	relative viability ([2]; first compound 0.01 µM)	relative viability ([2]; first compound 0.03162 µM)	relative viability ([2]; first compound 0.1 µM)	relative viability ([2]; first compound 0.3162 µM)	relative viability ([2]; first compound 1 µM)	relative viability ([3]; first compound 0.01 µM)	relative viability ([3]; first compound 0.03162 µM)	relative viability ([3]; first compound 0.1 µM)	relative viability ([3]; first compound 0.3162 µM)	relative viability ([3]; first compound 1 µM)	relative viability ([4]; first compound 0.01 µM)	relative viability ([4]; first compound 0.03162 µM)	relative viability ([4]; first compound 0.1 µM)	relative viability ([4]; first compound 0.3162 µM)	relative viability ([4]; first compound 1 µM)
NCI-H1734	0.84	0.82	0.226	0.154	0.156	0.582	0.72	0.745	0.542	0.667	0.947	0.896	0.859	0.238	0.228	0.675	0.628	0.722	0.599	0.86
LXF-289	0.991	0.91	0.485	0.0621	0.0527	0.966	1.07	1.05	1.04	1.07	0.988	0.892	0.845	0.069	0.0799	0.987	1.07	1.05	1.01	1.05
H3255	0.824	0.679	0.36	0.241	0.276	0.531	0.552	0.561	0.483	0.592	0.906	1.03	0.903	0.227	0.226	0.683	0.663	0.721	–	0.934
201T	1.11	1.12	1.07	1.09	0.367	0.792	0.826	0.836	0.851	0.839	1.07	0.866	1.07	1	0.345	1.02	1.04	1.02	0.999	1.09
NCI-H2126	1.19	1.1	1.05	0.636	0.227	0.903	0.897	0.901	0.855	0.956	0.751	0.759	0.721	0.46	0.268	0.759	0.81	0.752	0.71	0.734
HOP-62	0.603	1.34	0.329	0.114	0.103	0.389	0.351	0.466	–	0.465	0.89	1	0.914	0.135	0.142	1.08	0.999	0.871	1.1	1.12
CAL-12T	0.926	0.823	0.393	0.182	0.192	0.724	0.829	0.726	0.741	0.825	0.913	0.808	0.852	0.165	0.286	1.13	1.15	0.877	1.03	1.27
NCI-H520	0.741	0.321	–	0.194	0.123	0.294	0.351	0.268	0.385	0.343	0.984	0.852	0.792	0.153	0.171	0.918	1.03	0.909	0.859	0.829
NCI-H1755	0.9	0.891	0.355	0.308	0.262	0.858	0.915	0.888	0.827	0.893	1.03	0.992	0.971	0.455	0.272	0.883	0.983	0.91	0.896	0.938
NCI-H2023	0.943	0.87	0.193	0.0834	0.0889	0.469	0.57	0.561	0.425	0.491	0.67	0.667	0.606	0.0984	0.109	0.568	0.691	0.592	0.529	0.548
NCI-H2009	1.02	0.916	0.413	0.156	0.108	0.652	0.787	0.675	0.686	0.64	1.21	1.18	1.14	0.394	0.294	1.19	1.25	1.02	1.14	1.15
